Reference: ChEMBL document CHEMBL3132769, “Fragment growing to retain or alter the selectivity of anchored kinase hinge-binding fragments” (Medchemcomm, 2014)

Legend:
[1] = biological target: Calcium/calmodulin-dependent protein kinase type II subunit delta (Homo sapiens) (UniProt Q13557); assay: Inhibition of human full length CAMK2D expressed in baculovirus assessed as substrate phosphorylation using fluorescence-labelled peptides as substrate at 9 uM after 90 mins by microfluidic peptide phosphorylation assay
[2] = biological target: Serine/threonine-protein kinase MARK1 (Homo sapiens) (UniProt Q9P0L2); assay: Inhibition of human full length MARK1 expressed in baculovirus assessed as substrate phosphorylation using fluorescence-labelled peptides as substrate at 95 uM after 90 mins by microfluidic peptide phosphorylation assay
[3] = biological target: T1, Aurora kinase A (Homo sapiens) (UniProt O14965); assay: Inhibition of human full length AurA expressed in baculovirus assessed as substrate phosphorylation using fluorescence-labelled peptides as substrate at 420 uM after 90 mins by microfluidic peptide phosphorylation assay
T1 sequence (whole entry): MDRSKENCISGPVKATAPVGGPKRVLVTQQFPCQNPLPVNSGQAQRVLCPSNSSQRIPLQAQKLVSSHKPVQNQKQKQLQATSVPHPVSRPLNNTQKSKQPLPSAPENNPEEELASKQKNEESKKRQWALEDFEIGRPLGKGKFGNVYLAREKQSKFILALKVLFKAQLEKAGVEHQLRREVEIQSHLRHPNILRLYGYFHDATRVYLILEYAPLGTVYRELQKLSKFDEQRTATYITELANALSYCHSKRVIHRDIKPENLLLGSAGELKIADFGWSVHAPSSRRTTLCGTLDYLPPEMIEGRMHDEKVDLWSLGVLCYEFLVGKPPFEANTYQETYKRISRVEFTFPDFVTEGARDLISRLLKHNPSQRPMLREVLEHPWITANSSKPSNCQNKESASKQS

[4] = biological target: Tyrosine-protein kinase BTK (Homo sapiens) (UniProt Q06187); assay: Inhibition of human full length BTK expressed in baculovirus assessed as substrate phosphorylation using fluorescence-labelled peptides as substrate at 70 uM after 90 mins by microfluidic peptide phosphorylation assay
[5] = biological target: Tyrosine-protein kinase Fyn (Homo sapiens) (UniProt P06241); assay: Inhibition of human full length FYN expressed in baculovirus assessed as substrate phosphorylation using fluorescence-labelled peptides as substrate at 70 uM after 90 mins by microfluidic peptide phosphorylation assay
[6] = biological target: Protein kinase C gamma type (Homo sapiens) (UniProt P05129); assay: Inhibition of human truncated PKC gamma expressed in baculovirus assessed as substrate phosphorylation using fluorescence-labelled peptides as substrate at 70 uM after 90 mins by microfluidic peptide phosphorylation assay
[7] = biological target: Ribosomal protein S6 kinase alpha-1 (Homo sapiens) (UniProt Q15418); assay: Inhibition of human full length RSK1 expressed in baculovirus assessed as substrate phosphorylation using fluorescence-labelled peptides as substrate at 0.2 uM after 90 mins by microfluidic peptide phosphorylation assay
[8] = biological target: T2, Serine/threonine-protein kinase D2 (Homo sapiens) (UniProt Q9BZL6); assay: Inhibition of human full length PKD2 expressed in baculovirus assessed as substrate phosphorylation using fluorescence-labelled peptides as substrate at 2 uM after 90 mins by microfluidic peptide phosphorylation assay
T2 sequence (whole entry): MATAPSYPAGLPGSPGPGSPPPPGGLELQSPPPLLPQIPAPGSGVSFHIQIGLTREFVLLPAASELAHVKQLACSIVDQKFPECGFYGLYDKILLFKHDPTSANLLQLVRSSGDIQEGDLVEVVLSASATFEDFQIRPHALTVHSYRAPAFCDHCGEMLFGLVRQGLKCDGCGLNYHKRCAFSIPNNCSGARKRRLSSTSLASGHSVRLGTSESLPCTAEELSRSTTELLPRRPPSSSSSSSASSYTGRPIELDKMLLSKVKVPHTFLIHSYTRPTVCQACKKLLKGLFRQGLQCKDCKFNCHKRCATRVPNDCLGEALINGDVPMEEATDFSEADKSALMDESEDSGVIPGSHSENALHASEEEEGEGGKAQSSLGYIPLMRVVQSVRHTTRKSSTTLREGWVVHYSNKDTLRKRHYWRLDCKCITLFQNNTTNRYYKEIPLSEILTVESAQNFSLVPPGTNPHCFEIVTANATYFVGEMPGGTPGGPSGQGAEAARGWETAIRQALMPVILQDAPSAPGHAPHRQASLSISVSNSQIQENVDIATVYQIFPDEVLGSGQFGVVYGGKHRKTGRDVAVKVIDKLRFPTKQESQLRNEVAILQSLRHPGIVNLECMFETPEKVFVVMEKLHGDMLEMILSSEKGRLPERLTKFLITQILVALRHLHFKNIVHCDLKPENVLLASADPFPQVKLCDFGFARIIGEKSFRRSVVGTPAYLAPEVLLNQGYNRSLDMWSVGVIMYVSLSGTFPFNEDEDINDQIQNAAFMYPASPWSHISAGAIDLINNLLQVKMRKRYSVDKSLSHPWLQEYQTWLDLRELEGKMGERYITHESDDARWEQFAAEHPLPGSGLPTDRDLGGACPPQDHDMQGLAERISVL

[9] = biological target: Mitogen-activated protein kinase 14 (Homo sapiens) (UniProt Q16539); assay: Inhibition of human truncated p38 alpha expressed in Escherichia coli cell assessed as substrate phosphorylation using fluorescence-labelled peptides as substrate at 8 uM after 90 mins by microfluidic peptide phosphorylation assay
[10] = biological target: Serine/threonine-protein kinase Chk2 (Homo sapiens) (UniProt O96017); assay: Inhibition of human full length CHK2 expressed in baculovirus assessed as substrate phosphorylation using fluorescence-labelled peptides as substrate at 1000 uM after 90 mins by microfluidic peptide phosphorylation assay
Sequence of Serine/threonine-protein kinase Chk2 (Homo sapiens) (O96017 whole entry): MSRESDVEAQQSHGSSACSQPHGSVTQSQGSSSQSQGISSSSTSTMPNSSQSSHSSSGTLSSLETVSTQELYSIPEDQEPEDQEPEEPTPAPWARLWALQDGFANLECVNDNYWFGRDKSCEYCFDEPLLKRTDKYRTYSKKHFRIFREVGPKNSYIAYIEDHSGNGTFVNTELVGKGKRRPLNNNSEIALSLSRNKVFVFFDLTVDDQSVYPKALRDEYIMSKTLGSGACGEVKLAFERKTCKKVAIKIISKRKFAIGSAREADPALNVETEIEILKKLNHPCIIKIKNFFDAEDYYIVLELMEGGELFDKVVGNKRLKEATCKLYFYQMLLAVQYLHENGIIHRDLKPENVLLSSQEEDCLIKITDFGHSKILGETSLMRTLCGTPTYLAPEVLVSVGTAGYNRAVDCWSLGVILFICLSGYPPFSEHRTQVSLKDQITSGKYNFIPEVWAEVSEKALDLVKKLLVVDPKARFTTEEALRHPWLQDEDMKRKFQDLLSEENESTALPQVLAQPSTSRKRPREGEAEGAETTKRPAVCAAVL

Sequence of Mitogen-activated protein kinase 14 (Homo sapiens) (Q16539 whole entry, the tested form may be a part): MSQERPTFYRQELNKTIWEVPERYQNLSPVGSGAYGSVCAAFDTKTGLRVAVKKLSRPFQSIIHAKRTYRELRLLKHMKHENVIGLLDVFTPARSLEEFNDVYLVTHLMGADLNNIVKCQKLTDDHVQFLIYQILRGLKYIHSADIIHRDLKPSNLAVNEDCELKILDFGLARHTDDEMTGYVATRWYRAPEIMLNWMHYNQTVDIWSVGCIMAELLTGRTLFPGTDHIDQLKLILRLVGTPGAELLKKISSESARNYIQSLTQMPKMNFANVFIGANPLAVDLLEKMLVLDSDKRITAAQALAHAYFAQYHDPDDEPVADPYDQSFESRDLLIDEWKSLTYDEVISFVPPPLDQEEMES
Sequence of Tyrosine-protein kinase BTK (Homo sapiens) (Q06187 whole entry): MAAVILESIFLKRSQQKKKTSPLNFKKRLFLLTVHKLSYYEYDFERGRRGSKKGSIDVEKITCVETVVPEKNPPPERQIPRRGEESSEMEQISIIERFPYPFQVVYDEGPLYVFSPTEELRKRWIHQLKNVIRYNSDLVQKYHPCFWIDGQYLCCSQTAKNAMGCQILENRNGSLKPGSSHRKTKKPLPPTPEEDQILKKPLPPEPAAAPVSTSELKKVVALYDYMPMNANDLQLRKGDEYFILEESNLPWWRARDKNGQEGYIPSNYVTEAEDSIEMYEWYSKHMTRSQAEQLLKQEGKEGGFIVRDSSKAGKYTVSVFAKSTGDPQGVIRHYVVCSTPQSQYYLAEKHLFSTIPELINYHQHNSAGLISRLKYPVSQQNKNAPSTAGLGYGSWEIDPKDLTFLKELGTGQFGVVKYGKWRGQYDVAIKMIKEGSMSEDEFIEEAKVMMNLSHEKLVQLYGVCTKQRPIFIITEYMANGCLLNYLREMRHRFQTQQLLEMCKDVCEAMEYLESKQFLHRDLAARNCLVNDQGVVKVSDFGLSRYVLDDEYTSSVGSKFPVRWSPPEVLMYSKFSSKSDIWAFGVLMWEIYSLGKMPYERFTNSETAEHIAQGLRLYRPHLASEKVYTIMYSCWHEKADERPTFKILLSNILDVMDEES
Sequence of Tyrosine-protein kinase Fyn (Homo sapiens) (P06241 2-537 limits assumed): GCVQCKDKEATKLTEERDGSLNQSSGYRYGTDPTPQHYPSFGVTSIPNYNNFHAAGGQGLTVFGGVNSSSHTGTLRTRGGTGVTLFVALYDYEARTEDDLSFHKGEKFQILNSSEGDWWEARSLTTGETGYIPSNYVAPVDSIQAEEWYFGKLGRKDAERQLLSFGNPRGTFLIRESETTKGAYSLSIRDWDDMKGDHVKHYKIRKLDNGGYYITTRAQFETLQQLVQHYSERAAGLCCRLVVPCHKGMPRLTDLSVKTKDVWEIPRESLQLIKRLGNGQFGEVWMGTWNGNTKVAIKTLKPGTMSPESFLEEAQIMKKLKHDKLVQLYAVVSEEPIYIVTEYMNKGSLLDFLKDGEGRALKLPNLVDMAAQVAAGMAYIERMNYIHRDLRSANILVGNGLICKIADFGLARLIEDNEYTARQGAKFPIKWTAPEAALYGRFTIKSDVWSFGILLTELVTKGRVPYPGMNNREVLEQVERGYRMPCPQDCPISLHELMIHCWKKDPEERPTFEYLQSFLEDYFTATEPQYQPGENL
Sequence of Calcium/calmodulin-dependent protein kinase type II subunit delta (Homo sapiens) (Q13557 whole entry): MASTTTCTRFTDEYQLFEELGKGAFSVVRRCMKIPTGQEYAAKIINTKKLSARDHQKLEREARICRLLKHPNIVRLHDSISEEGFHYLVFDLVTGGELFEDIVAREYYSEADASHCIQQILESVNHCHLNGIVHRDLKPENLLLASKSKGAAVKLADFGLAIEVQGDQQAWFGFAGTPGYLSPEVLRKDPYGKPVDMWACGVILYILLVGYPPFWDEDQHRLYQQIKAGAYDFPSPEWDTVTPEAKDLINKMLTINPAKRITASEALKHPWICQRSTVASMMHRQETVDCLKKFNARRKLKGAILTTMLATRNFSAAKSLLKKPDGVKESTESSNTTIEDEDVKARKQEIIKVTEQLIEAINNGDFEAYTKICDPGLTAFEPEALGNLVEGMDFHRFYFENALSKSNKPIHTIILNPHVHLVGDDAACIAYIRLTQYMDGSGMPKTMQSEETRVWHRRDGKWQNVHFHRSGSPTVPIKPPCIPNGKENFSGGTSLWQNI
Sequence of Ribosomal protein S6 kinase alpha-1 (Homo sapiens) (Q15418 whole entry): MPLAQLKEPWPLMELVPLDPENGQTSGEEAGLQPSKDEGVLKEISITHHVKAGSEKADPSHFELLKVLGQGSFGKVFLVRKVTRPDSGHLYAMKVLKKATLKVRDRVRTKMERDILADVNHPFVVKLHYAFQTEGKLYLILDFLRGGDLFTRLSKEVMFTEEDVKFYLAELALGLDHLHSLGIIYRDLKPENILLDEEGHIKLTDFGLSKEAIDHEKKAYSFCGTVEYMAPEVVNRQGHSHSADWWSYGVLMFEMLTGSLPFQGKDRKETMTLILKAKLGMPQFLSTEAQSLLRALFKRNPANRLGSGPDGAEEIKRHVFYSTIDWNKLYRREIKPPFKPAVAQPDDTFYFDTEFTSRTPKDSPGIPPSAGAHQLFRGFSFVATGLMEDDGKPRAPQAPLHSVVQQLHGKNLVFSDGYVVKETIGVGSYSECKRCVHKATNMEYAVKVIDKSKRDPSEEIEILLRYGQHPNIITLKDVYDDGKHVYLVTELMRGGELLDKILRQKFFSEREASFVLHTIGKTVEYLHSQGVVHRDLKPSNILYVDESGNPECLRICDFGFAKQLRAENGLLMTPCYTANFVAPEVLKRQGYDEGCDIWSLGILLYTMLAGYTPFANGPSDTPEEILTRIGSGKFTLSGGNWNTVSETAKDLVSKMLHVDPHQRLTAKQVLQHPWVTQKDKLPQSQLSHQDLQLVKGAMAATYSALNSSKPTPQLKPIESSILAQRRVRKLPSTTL
Sequence of Serine/threonine-protein kinase MARK1 (Homo sapiens) (Q9P0L2 whole entry, looked up): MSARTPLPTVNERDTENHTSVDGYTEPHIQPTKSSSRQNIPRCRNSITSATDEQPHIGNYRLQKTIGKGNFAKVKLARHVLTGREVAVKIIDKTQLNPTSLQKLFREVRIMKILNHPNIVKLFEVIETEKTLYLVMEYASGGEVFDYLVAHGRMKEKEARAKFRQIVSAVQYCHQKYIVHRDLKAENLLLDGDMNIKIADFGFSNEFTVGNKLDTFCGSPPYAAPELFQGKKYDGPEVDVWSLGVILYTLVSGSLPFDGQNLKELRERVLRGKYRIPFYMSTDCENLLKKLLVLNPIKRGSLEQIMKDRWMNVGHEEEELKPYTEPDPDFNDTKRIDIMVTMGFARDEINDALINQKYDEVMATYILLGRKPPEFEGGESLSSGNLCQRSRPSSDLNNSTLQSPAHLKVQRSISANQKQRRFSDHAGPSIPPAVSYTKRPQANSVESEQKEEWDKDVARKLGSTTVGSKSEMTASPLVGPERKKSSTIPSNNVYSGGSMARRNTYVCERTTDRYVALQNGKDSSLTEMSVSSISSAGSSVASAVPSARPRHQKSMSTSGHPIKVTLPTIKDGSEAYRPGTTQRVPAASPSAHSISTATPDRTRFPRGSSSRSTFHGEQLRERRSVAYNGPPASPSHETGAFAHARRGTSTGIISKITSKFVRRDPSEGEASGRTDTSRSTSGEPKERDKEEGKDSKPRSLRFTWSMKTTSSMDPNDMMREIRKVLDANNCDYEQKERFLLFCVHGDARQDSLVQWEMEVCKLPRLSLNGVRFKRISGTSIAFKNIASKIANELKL

Compound NCC1CN(c2ncnc3[nH]c4cnccc4c23)CCO1 (stereo not given) has an inhibition [1] of 42.5%.

For NCCc1ccc(-c2ncnc3[nH]cnc23)cc1, the inhibition [2] was 97%.

For c1nc(N2CCOCC2)c2nc[nH]c2n1, the inhibition [3] was 96%.

CNCc1ccc(-c2ncnc3[nH]cnc23)cc1 was tested, and the inhibition [4] was 0%, the inhibition [5] was 31.5% and the inhibition [6] was 64%.

Work on Clc1ccc(C2(c3ccc(-c4ncnc5[nH]cnc45)cc3)CCNCC2)cc1 yielded an inhibition [7] of 38%.

For NC1CCN(c2ncnc3[nH]ccc23)CC1, the inhibition [8] was 6.5%.

NCC1CCN(c2ncnc3[nH]ccc23)CC1 showed an inhibition [9] of 7%.

For c1cnc2[nH]ccc2c1, the inhibition [10] was 74%.
